The source made the active and inactive calls. The rule behind the calls is not given here.
Tests used:
[1] = Antiviral activity against Bovine viral diarrhea virus 1-NADL infected in bovine MDBK cells assessed as reduction in plaque forming units after 72 hrs by crystal violet staining-based assay; format: functional, cell-based; conditions: Bovine viral diarrhea virus isolates and strains
[2] = Cytotoxicity against bovine MDBK cells assessed as reduction in cell viability after 3 days by MTS/PES assay; format: cell-based, Bos taurus; conditions: cattle
[3] = Selectivity index, ratio of CC50 for bovine MDBK cells to EC50 for Bovine viral diarrhea virus 1-NADL; format: toxicity; conditions: cattle, read-out: Ratio CC50/EC50
[4] = system: Bovine viral diarrhea virus 1; test: Antiviral activity against TSC-resistant Bovine viral diarrhea virus 1 harboring NS5B N264D/A392E double mutant infected in bovine MDBK cells assessed as reduction in virus induced cytopathic effect after 72 hrs by MTS/PES assay; format: functional, cell-based; conditions: Bovine viral diarrhea virus isolates and strains
[5] = system: Bovine viral diarrhea virus 1; test: Antiviral activity against Bovine viral diarrhea virus 1 ATCC VR 534 infected in bovine MDBK cells assessed as reduction in virus induced cytopathic effect at 25 uM treated up to 4 hrs post infection measured after 48 hrs by MTS/PES assay; format: functional, cell-based
[6] = system: Bovine viral diarrhea virus 1; test: Antiviral activity against wild type Bovine viral diarrhea virus 1 ATCC VR 534 infected in bovine MDBK cells assessed as reduction in virus induced cytopathic effect after 72 hrs by MTS/PES assay; format: functional, cell-based; conditions: Bovine viral diarrhea virus isolates and strains, ATCC VR 534, MDBK
[7] = system: Bovine viral diarrhea virus 1; test: Ratio of EC50 for TSC-resistant Bovine viral diarrhea virus type 1 harboring NS5B N264D/A392E double mutant to EC50 for wild type Bovine viral diarrhea virus type 1 ATCC VR 534; format: functional

Cc1ccc(NC(=S)N/N=C2\CCc3ccccc32)cc1
EC50 [1]: > 20 µM | CC50 at 72 h [2]: > 20 µM

Fc1ccc(NC(=S)N/N=C2\CCc3ccccc32)cc1
EC50 [1]: > 20 µM | CC50 at 72 h [2]: > 20 µM

Cc1cc(Br)c(C)c2c1/C(=N/NC(N)=S)CC2
EC50 [1]: 7.4 µM | selectivity ratio [3]: > 13.5 | CC50 at 72 h [2]: > 100 µM

NC(=S)N/N=C1\CCc2c1cccc2[N+](=O)[O-]
EC50 [1]: 6.1 µM | selectivity ratio [3]: 14.2 | CC50 at 72 h [2]: 84.6 µM

COc1cc2c(cc1OC)/C(=N/NC(=S)Nc1ccc(Cl)cc1)CC2
EC50 [1]: 6.6 µM | selectivity ratio [3]: > 1.5 | CC50 at 72 h [2]: > 10 µM

COc1ccc(NC(=S)N/N=C2\CCc3ccccc32)cc1
EC50 [1]: > 10 µM | CC50 at 72 h [2]: > 10 µM

NC(=S)N/N=C1\CCc2cc(F)ccc21
EC50 [1]: 9 µM | selectivity ratio [3]: 5.4 | CC50 at 72 h [2]: 41.9 µM

S=C(N/N=C1\CCc2ccccc21)Nc1ccc(Cl)cc1
EC50 [1]: > 20 µM | CC50 at 72 h [2]: > 20 µM

NC(=S)N/N=C1\CCc2ccc([N+](=O)[O-])cc21
EC50 [1]: 2.7 µM | EC50 [4]: 1.07 µM | selectivity ratio [3]: > 9.3 | CC50 at 72 h [2]: > 25 µM | inhibition [5]: Active | EC50 [6]: 1.04 µM

COc1cc2c(cc1OC)/C(=N/NC(=S)Nc1ccc(C)cc1)CC2
EC50 [1]: 8.8 µM | selectivity ratio [3]: > 2.3 | CC50 at 72 h [2]: > 20 µM

COc1cc2c(cc1OC)/C(=N/NC(=S)Nc1ccccc1)CC2
EC50 [1]: 8.4 µM | selectivity ratio [3]: > 1.2 | CC50 at 72 h [2]: > 10 µM

S=C(N/N=C1\CCc2ccccc21)Nc1ccccc1
EC50 [1]: > 10 µM | CC50 at 72 h [2]: > 10 µM

COc1cc2c(cc1OC)/C(=N/NC(N)=S)CC2
EC50 [1]: 3.8 µM | EC50 [4]: > 80 µM | selectivity ratio [3]: > 21.1 | Ratio EC50 [7]: >41 | CC50 at 72 h [2]: > 80 µM | EC50 [6]: 1.95 µM

O=[N+]([O-])c1ccc(NC(=S)N/N=C2\CCc3ccccc32)cc1
EC50 [1]: > 10 µM | CC50 at 72 h [2]: > 10 µM

NC(=O)c1ncn([C@@H]2O[C@H](CO)[C@@H](O)[C@H]2O)n1 [RIBAVIRIN]
EC50 [1]: 7.7 µM | selectivity ratio [3]: 7.1

COc1cc2c(cc1OC)/C(=N/NC(=S)Nc1ccc(F)cc1)CC2
EC50 [1]: 4 µM | selectivity ratio [3]: > 5 | CC50 at 72 h [2]: > 20 µM

COc1ccc(NC(=S)N/N=C2\CCc3cc(OC)c(OC)cc32)cc1
EC50 [1]: 12.9 µM | selectivity ratio [3]: > 1.6 | CC50 at 72 h [2]: > 20 µM

COc1cc2c(cc1OC)/C(=N/NC(=S)Nc1ccc([N+](=O)[O-])cc1)CC2
EC50 [1]: 0.7 µM | EC50 [4]: > 10 µM | selectivity ratio [3]: > 14.3 | Ratio EC50 [7]: >22 | CC50 at 72 h [2]: > 10 µM | EC50 [6]: 0.45 µM

Reference: ChEMBL document CHEMBL4052663, “Synthesis, antiviral evaluation and molecular docking studies of N4-aryl substituted/unsubstituted thiosemicarbazones derived from 1-indanones as potent anti-bovine viral diarrhea virus agents” (Bioorg Med Chem, 2017)
